Legend:
Test in all cases: standardised AUC of viability dose-response curve (72 h) (fraction (0-1)); higher = less growth inhibition (more resistant)
[1] = test system: HS729
In short: (§1)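 Viability of sarcoma cell lines was read with ATPLite after 72 h of triplicate treatment in 384-well plates with 2.5 µl of compound from a compound-plate series of 10 mM to 0.0002 mM. Viability was scaled 1 (full) to 0 (none) and fitted with a four-parameter log-logistic model for each drug and cell line. The reported standardised area under the dose-response curve in log-dose space comes from a modified drexplorer computeAUC, where 1 is no response and 0 is full response.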

[2] = test system: VA-ES-BJ
In short: as §1

[3] = test system: KHOS-240S
In short: as §1

[4] = test system: G401
In short: as §1

[5] = test system: SW684
In short: as §1

[6] = test system: MES-SA
In short: as §1

[7] = test system: SW872
In short: as §1

[8] = test system: KHOS-NP
In short: as §1

[9] = test system: RD
In short: as §1

[10] = test system: SYO-1
In short: as §1

[11] = test system: SK-LMS-1
In short: as §1

[12] = test system: SW1353
In short: as §1

[13] = test system: SW982
In short: as §1

[14] = test system: SK-ES-1
In short: as §1

[15] = test system: A204
In short: as §1

[16] = test system: HT1080
In short: as §1

[17] = test system: RD-ES
In short: as §1

Structure (SMILES) | standardised AUC [1] | standardised AUC [2] | standardised AUC [3] | standardised AUC [4] | standardised AUC [5] | standardised AUC [6] | standardised AUC [7] | standardised AUC [8] | standardised AUC [9] | standardised AUC [10] | standardised AUC [11] | standardised AUC [12] | standardised AUC [13] | standardised AUC [14] | standardised AUC [15] | standardised AUC [16] | standardised AUC [17]
C[C@H]1Oc2cc(cnc2N)-c2c(nn(C)c2C#N)CN(C)C(=O)c2ccc(F)cc21 [LORLATINIB] | 0.871 | 0.941 | 0.953 | 0.96 | 0.983 | 0.951 | 0.861 | 0.957 | 0.926 | 0.895 | 0.952 | 0.928 | 0.887 | 0.963 | 0.959 | 0.977 | 0.932
C=CC(=O)Nc1cc(Nc2nccc(-c3cn(C)c4ccccc34)n2)c(OC)cc1N(C)CCN(C)C [OSIMERTINIB] | 0.874 | 0.916 | 0.923 | 0.904 | 0.939 | 0.893 | 0.918 | 0.974 | 0.921 | 0.798 | 0.925 | 0.919 | 0.907 | 0.847 | 0.873 | 0.938 | 0.89
CO[C@H]1C[C@@H]2CC[C@@H](C)[C@@](O)(O2)C(=O)C(=O)N2CCCC[C@H]2C(=O)O[C@H]([C@H](C)C[C@@H]2CC[C@@H](O)[C@H](OC)C2)CC(=O)[C@H](C)/C=C(\C)[C@@H](O)[C@@H](OC)C(=O)[C@H](C)C[C@H](C)/C=C/C=C/C=C/1C [RAPAMYCIN] | 0.944 | 0.589 | 0.815 | 0.814 | 0.763 | 0.489 | 0.729 | 0.989 | 0.712 | 0.846 | 0.665 | 0.856 | 0.724 | 0.63 | 0.607 | 0.916 | 0.778
COc1cc2ncnc(Nc3ccc(F)c(Cl)c3)c2cc1NC(=O)/C=C/CN1CCCCC1 [DACOMITINIB] | 0.907 | 0.893 | 0.896 | 0.89 | 0.888 | 0.858 | 0.87 | 0.939 | 0.869 | 0.856 | 0.91 | 0.804 | 0.814 | 0.824 | 0.842 | 0.916 | 0.879
Cc1cc(Nc2ncc(Cl)c(Nc3ccccc3S(=O)(=O)C(C)C)n2)c(OC(C)C)cc1C1CCNCC1 [CERITINIB] | 0.889 | 0.933 | 0.874 | 0.833 | 0.923 | 0.916 | 0.901 | 0.933 | 0.81 | 0.884 | 0.924 | 0.865 | 0.827 | 0.751 | 0.87 | 0.918 | 0.784
CO[C@@H]1[C@H](N(C)C(=O)c2ccccc2)C[C@H]2O[C@]1(C)n1c3ccccc3c3c4c(c5c6ccccc6n2c5c31)C(=O)NC4 [MIDOSTAURIN] | 0.796 | 0.785 | 0.709 | 0.778 | 0.835 | 0.731 | 0.757 | 0.812 | 0.81 | 0.642 | 0.773 | 0.733 | 0.709 | 0.689 | 0.715 | 0.8 | 0.764
Cc1ccc(NC(=O)c2ccc(CN3CCN(C)CC3)cc2)cc1Nc1nccc(-c2cccnc2)n1 [IMATINIB] | 0.959 | 0.987 | 0.949 | 0.957 | 0.983 | 0.973 | 0.979 | 0.966 | 0.988 | 0.865 | 0.982 | 0.984 | 0.98 | 0.962 | 0.725 | 0.974 | 0.983
N#Cc1ccnc(N2C(=O)CC[C@H]2C(=O)N(c2cncc(F)c2)[C@H](C(=O)NC2CC(F)(F)C2)c2ccccc2Cl)c1 [IVOSIDENIB] | 0.986 | 0.987 | 0.988 | 0.981 | 0.993 | 0.999 | 1 | 0.993 | 0.992 | 0.985 | 0.977 | 0.993 | 0.974 | 0.997 | 0.972 | 1 | 0.988
COc1cc2c(Oc3ccc4[nH]c(C)cc4c3F)ccnc2cc1OCC1(N)CC1 [ANLOTINIB] | 0.909 | 0.941 | 0.883 | 0.872 | 0.944 | 0.876 | 0.936 | 0.93 | 0.903 | 0.736 | 0.868 | 0.909 | 0.904 | 0.851 | 0.708 | 0.965 | 0.914
C[C@@H](Oc1cc(-c2cnn(C3CCNCC3)c2)cnc1N)c1c(Cl)ccc(F)c1Cl [CRIZOTINIB] | 0.879 | 0.817 | 0.873 | 0.859 | 0.901 | 0.765 | 0.834 | 0.944 | 0.824 | 0.745 | 0.717 | 0.915 | 0.74 | 0.72 | 0.877 | 0.919 | 0.758
CN(C)C[C@@H]1CCn2cc(c3ccccc32)C2=C(C(=O)NC2=O)c2cn(c3ccccc23)CCO1 [RUBOXISTAURIN] | 0.969 | 0.946 | 0.99 | 0.954 | 0.991 | 0.951 | 0.953 | 0.99 | 0.99 | 0.861 | 0.929 | 0.947 | 0.947 | 0.911 | 0.926 | 0.995 | 0.945
CC[C@@H]1C(=O)N(C)c2cnc(Nc3ccc(C(=O)N[C@H]4CC[C@H](N5CCN(CC6CC6)CC5)CC4)cc3OC)nc2N1C(C)C [VOLASERTIB] | 0.766 | 0.531 | 0.534 | 0.653 | 0.693 | 0.555 | 0.578 | 0.642 | 0.533 | 0.453 | 0.635 | 0.723 | 0.547 | 0.52 | 0.647 | 0.601 | 0.504
C#Cc1cccc(Nc2ncnc3cc(OCCOC)c(OCCOC)cc23)c1 [ERLOTINIB] | 0.956 | 0.955 | 0.994 | 0.982 | 0.992 | 0.941 | 0.946 | 0.994 | 0.984 | 0.978 | 0.968 | 0.926 | 0.927 | 0.893 | 0.943 | 0.992 | 0.983
COc1cc(OC)cc(N(CCNC(C)C)c2ccc3ncc(-c4cnn(C)c4)nc3c2)c1 [ERDAFITINIB] | 0.685 | 0.912 | 0.773 | 0.604 | 0.924 | 0.796 | 0.856 | 0.971 | 0.924 | 0.581 | 0.91 | 0.868 | 0.816 | 0.818 | 0.555 | 0.964 | 0.891
Cc1cccc(-c2[nH]c(CNc3ccccc3F)nc2-c2ccc3ncnn3c2)n1 [VACTOSERTIB] | 0.917 | 1 | 0.957 | 0.993 | 0.959 | 0.991 | 1 | 0.989 | 0.996 | 0.911 | 0.995 | 0.992 | 0.995 | 0.997 | 0.982 | 1 | 0.99
Cc1cn(-c2cc(NC(=O)c3ccc(C)c(Nc4nccc(-c5cccnc5)n4)c3)cc(C(F)(F)F)c2)cn1 [NILOTINIB] | 0.917 | 0.981 | 0.947 | 0.954 | 1 | 0.957 | 0.971 | 0.989 | 0.926 | 0.843 | 1 | 0.996 | 0.976 | 0.909 | 0.799 | 0.972 | 0.949
CCCS(=O)(=O)N[C@H]1C[C@@H](N(C)c2ncnc3[nH]ccc23)C1 [ABROCITINIB] | 0.982 | 1 | 0.989 | 0.985 | 0.989 | 0.996 | 0.991 | 0.994 | 0.995 | 1 | 0.997 | 1 | 0.997 | 0.985 | 0.984 | 1 | 1
CCN(CCCOc1ccc2c(Nc3cc(CC(=O)Nc4cccc(F)c4)[nH]n3)ncnc2c1)CCOP(=O)(O)O [BARASERTIB] | 0.928 | 0.8 | 0.856 | 0.869 | 0.972 | 0.685 | 0.94 | 1 | 0.826 | 0.581 | 0.938 | 0.915 | 0.745 | 0.4 | 0.816 | 0.925 | 0.5
CCN(c1cc(-c2ccc(CN3CCOCC3)cc2)cc(C(=O)NCc2c(C)cc(C)[nH]c2=O)c1C)C1CCOCC1 [TAZEMETOSTAT] | 0.946 | 1 | 0.971 | 0.989 | 0.998 | 0.976 | 0.986 | 0.963 | 0.997 | 0.971 | 0.977 | 0.973 | 0.985 | 0.96 | 0.998 | 0.988 | 0.985
C1=N/C2=N/c3ccc(OCCN4CCCC4)c(c3)COC/C=C/COCc3cccc(c3)C(=C1)N2 [PACRITINIB] | 0.855 | 0.753 | 0.811 | 0.793 | 0.758 | 0.787 | 0.786 | 0.898 | 0.781 | 0.747 | 0.897 | 0.836 | 0.733 | 0.714 | 0.736 | 0.853 | 0.792
CN1CCN(CCOc2cc(OC3CCOCC3)c3c(Nc4c(Cl)ccc5c4OCO5)ncnc3c2)CC1 [SARACATINIB] | 0.849 | 0.938 | 0.884 | 0.918 | 0.977 | 0.943 | 0.858 | 0.951 | 0.871 | 0.851 | 0.908 | 0.865 | 0.821 | 0.931 | 0.906 | 0.981 | 0.955
C=CC(=O)Nc1cccc(Nc2nc(Nc3ccc(N4CCN(C(C)=O)CC4)cc3OC)ncc2C(F)(F)F)c1 [ROCILETINIB] | 0.878 | 0.921 | 0.929 | 0.886 | 0.937 | 0.874 | 0.912 | 0.975 | 0.899 | 0.867 | 0.893 | 0.889 | 0.906 | 0.831 | 0.912 | 0.973 | 0.857
C[C@@H]1COC(Nc2ccc3ncnc(Nc4ccc(OCc5nccs5)c(Cl)c4)c3c2)=N1 [VARLITINIB] | 0.955 | 0.994 | 0.975 | 0.953 | 0.994 | 0.954 | 0.962 | 0.992 | 1 | 0.97 | 0.987 | 0.928 | 0.975 | 0.97 | 0.918 | 0.974 | 0.989
COc1cc2nccc(Oc3ccc(NC(=O)NC4CC4)c(Cl)c3)c2cc1C(N)=O [LENVATINIB] | 0.866 | 1 | 0.888 | 0.845 | 0.992 | 0.911 | 0.978 | 1 | 0.999 | 0.701 | 0.984 | 0.914 | 0.966 | 0.898 | 0.587 | 0.995 | 0.937
